Source: the OligoGym collection
After the bases stand the sugars from the 5' end (letter, count) and the backbone: PS all phosphorothioate, else s phosphorothioate and o phosphodiester by linkage. Methylation of C is not given here. e = 2'-O-(2-methoxyethyl) (MOE); k = constrained ethyl (cEt); d = 2'-deoxy (DNA)

Biological target: IRF4
Conditions: ASO

TCCAAAGCATAGAGTC (sugars k3 d10 k3, PS) gave a target mRNA inhibition (SK-MEL-28, 4 µM) of 53%.
TCCAAGCAATTATTCC (sugars k3 d10 k3, PS) gave a target mRNA inhibition (SK-MEL-28, 4 µM) of 12%.
TCCACGCGCGGAGGAC (sugars k3 d10 k3, PS) was tested, and the target mRNA inhibition (MM.1R, 1 µM) was -43%.
With TCCACTGTTAAAGCAG (sugars k3 d10 k3, PS) the target mRNA inhibition (SK-MEL-28, 4 µM) was 55%.
TCCAGATGCAGATTCC (sugars k3 d10 k3, PS) showed a target mRNA inhibition (SK-MEL-28, 4 µM) of 46%.
In the case of TCCAGGTGGCTCAGCA (sugars k3 d10 k3, PS), the target mRNA inhibition (SK-MEL-28, 4 µM) is reported as 41%.
Work on TCCATAGAGCCAGAGC (sugars k3 d10 k3, PS) yielded a target mRNA inhibition (MM.1R, 1 µM) of 20%.
Work on TCCATAGATCAACATG (sugars k3 d10 k3, PS) yielded a target mRNA inhibition (SK-MEL-28, 4 µM) of 45%.
Sequence TCCCAACCCGCTTCTC (sugars k3 d10 k3, PS) has a target mRNA inhibition (SK-MEL-28, 4 µM) of 14%.
In the case of TCCCACGCGGGAGGCT (sugars k3 d10 k3, PS), the target mRNA inhibition (SK-MEL-28, 4 µM) is reported as 1%.
Sequence TCCCACTGGGCTTTGT (sugars k3 d10 k3, PS) has a target mRNA inhibition (SK-MEL-28, 4 µM) of 32%.
For TCCCAGTAGATCCTGC (sugars k3 d10 k3, PS), the target mRNA inhibition (SK-MEL-28, 4 µM) was 40%.
With TCCCATCCAAGAGTAG (sugars k3 d10 k3, PS) the target mRNA inhibition (SK-MEL-28, 4 µM) was 33%.
TCCCATCGAATCTGCC (sugars k3 d10 k3, PS) was tested, and the target mRNA inhibition (MM.1R, 1 µM) was -5%.
In the case of TCCCATGGTTACTAAT (sugars k3 d10 k3, PS), the target mRNA inhibition (MM.1R, 1 µM) is reported as -10%.
With TCCCGACACGCGCCGC (sugars k3 d10 k3, PS) the target mRNA inhibition (MM.1R, 1 µM) was -12%.
TCCCGGAGGAAGTCCC (sugars k3 d10 k3, PS) gave a target mRNA inhibition (SK-MEL-28, 4 µM) of 30%.
TCCTAACCCTGAGTAT (sugars k3 d10 k3, PS) showed a target mRNA inhibition (SK-MEL-28, 4 µM) of 27%.
With TCCTCAAAGTCATTGC (sugars k3 d10 k3, PS) the target mRNA inhibition (SK-MEL-28, 4 µM) was 32%.
TCCTCAACCGCTGAAC (sugars k3 d10 k3, PS) gave a target mRNA inhibition (SK-MEL-28, 4 µM) of 37%.
TCCTGAGACAAGTGCT (sugars k3 d10 k3, PS) was tested, and the target mRNA inhibition (SK-MEL-28, 4 µM) was 55%.
Work on TCCTTAATTATGCAGA (sugars k3 d10 k3, PS) yielded a target mRNA inhibition (SK-MEL-28, 4 µM) of 44%.
In the case of TCCTTTAAACAGTGCC (sugars k3 d10 k3, PS), the target mRNA inhibition (SK-MEL-28, 4 µM) is reported as 50%.
For TCCTTTAGTGTCGCCA (sugars k3 d10 k3, PS), the target mRNA inhibition (SK-MEL-28, 4 µM) was 76%.
In the case of TCCTTTGGGTGCTTTC (sugars k3 d10 k3, PS), the target mRNA inhibition (SK-MEL-28, 4 µM) is reported as 32%.
For TCGAATCTGCCCAAAG (sugars k3 d10 k3, PS), the target mRNA inhibition (MM.1R, 1 µM) was 23%.
In the case of TCGCAGGCAGTTGTGC (sugars k3 d10 k3, PS), the target mRNA inhibition (SK-MEL-28, 4 µM) is reported as -20%.
TCGCGCAAAGGGCAAG (sugars k3 d10 k3, PS) was tested, and the target mRNA inhibition (MM.1R, 1 µM) was -4%.
For TCTAACCCTAATCCTA (sugars k3 d10 k3, PS), the target mRNA inhibition (SK-MEL-28, 4 µM) was 5%.
In the case of TCTACTGGAGTCAAGC (sugars k3 d10 k3, PS), the target mRNA inhibition (MM.1R, 1 µM) is reported as 30%.
In the case of TCTAGTTTGCCAATTC (sugars k3 d10 k3, PS), the target mRNA inhibition (SK-MEL-28, 4 µM) is reported as 62%.
For TCTATAGTGTTCCAGG (sugars k3 d10 k3, PS), the target mRNA inhibition (SK-MEL-28, 4 µM) was 80%.
“TCTATAGTGTTCCAGG (sugars kkdddddddddkdkdk, PS)” gave a target mRNA inhibition (MM.1R, 0.074 µM) of 22%, a target mRNA inhibition (MM.1R, 0.222 µM) of 28% and a target mRNA inhibition (MM.1R, 0.666 µM) of 45%. It also gave a target mRNA inhibition (MM.1R, 1 µM) of 50% and a target mRNA inhibition (MM.1R, 2 µM) of 72%.
For “TCTATAGTGTTCCAGG (sugars kkdddddddddkekek, PS)”, the target mRNA inhibition (MM.1R, 1 µM) was 28%.
Work on “TCTATAGTGTTCCAGG (sugars kkkdddddddddkeke, PS)” yielded a target mRNA inhibition (MM.1R, 0.074 µM) of 22%, a target mRNA inhibition (MM.1R, 0.222 µM) of 34% and a target mRNA inhibition (MM.1R, 0.666 µM) of 56%. The target mRNA inhibition (MM.1R, 1 µM) was 68% and the target mRNA inhibition (MM.1R, 2 µM) was 81%.
Sequence “TCTATAGTGTTCCAGG (sugars kkkddddddddkekek, PS)” has a target mRNA inhibition (MM.1R, 1 µM) of 13%.
TCTCAGCAAAACGCAG (sugars k3 d10 k3, PS) showed a target mRNA inhibition (SK-MEL-28, 4 µM) of 27%.
TCTCCCACACCAGCCC (sugars k3 d10 k3, PS) showed a target mRNA inhibition (SK-MEL-28, 4 µM) of 6%.
In the case of TCTCTCCAGTTTGTTG (sugars k3 d10 k3, PS), the target mRNA inhibition (SK-MEL-28, 4 µM) is reported as 14%.
In the case of TCTGAGTAGACTTCTT (sugars k3 d10 k3, PS), the target mRNA inhibition (MM.1R, 1 µM) is reported as 14%.
TCTGAGTGAGCTTGCC (sugars k3 d10 k3, PS) showed a target mRNA inhibition (SK-MEL-28, 4 µM) of 49%.
TCTGGCTAGCAGAGGT (sugars k3 d10 k3, PS) showed a target mRNA inhibition (MM.1R, 1 µM) of 26%.
With TCTTACAGCAATCTTA (sugars k3 d10 k3, PS) the target mRNA inhibition (SK-MEL-28, 4 µM) was 32%.
For TCTTCTGGATTGCTGA (sugars k3 d10 k3, PS), the target mRNA inhibition (MM.1R, 1 µM) was 20%.
Sequence TCTTGTGGACACTTTT (sugars k3 d10 k3, PS) has a target mRNA inhibition (SK-MEL-28, 4 µM) of 65%.
TGAAACTGAGAGTGCG (sugars k3 d10 k3, PS) showed a target mRNA inhibition (SK-MEL-28, 4 µM) of 19%.
TGAAATGGAGCATCCG (sugars k3 d10 k3, PS) gave a target mRNA inhibition (SK-MEL-28, 4 µM) of 9%.
For TGAGATAAGAAGCACT (sugars k3 d10 k3, PS), the target mRNA inhibition (SK-MEL-28, 4 µM) was 20%.
TGAGATAGGAAGCACT (sugars k3 d10 k3, PS) gave a target mRNA inhibition (SK-MEL-28, 4 µM) of 38%.
TGAGCACTCTTACTCC (sugars k3 d10 k3, PS) gave a target mRNA inhibition (MM.1R, 1 µM) of -6%.
Sequence “TGATAGCTGAGCTGAT (sugars k2 d9 e3 k2, PS)” has a target mRNA inhibition (MM.1R, 1 µM) of -2%.
“TGATAGCTGAGCTGAT (sugars kdddddddddkekeke, PS)” was tested, and the target mRNA inhibition (MM.1R, 1 µM) was 17%.
For “TGATAGCTGAGCTGAT (sugars kkdddddddddekeke, PS)”, the target mRNA inhibition (MM.1R, 1 µM) was 15%.
“TGATAGCTGAGCTGAT (sugars kkdddddddddkdkdk, PS)” gave a target mRNA inhibition (MM.1R, 1 µM) of -22%.
TGATAGGTATACTTAA (sugars k3 d10 k3, PS) showed a target mRNA inhibition (SK-MEL-28, 4 µM) of 28%.
